Measured values taken from patent publication US8119569B2, “Benzoylpyrazole compounds, process for their production and herbicides containing them” (Ishihara Sangyo Kaisha, Ltd., priority 2006, dated 2012).

How the values were obtained:
Type in all cases: in vivo
[1] = test system: Japanese ribbon waparo (Sagittaria pygmaea); test: Test Example 4: paddy field pot, water application; settings: 63 g/ha, 14th day after application
Text: (§1) Paddy field soil was put into a 1/1,000,000 hectare pot, and seeds of barnyardgrass (Echinochloa oryzicola vasing.) and Japanese bulrush (Scirpus juncoides) were sown and lightly covered with soil. Then, pot was left to stand in a greenhouse in a state irrigated to a water depth of from 0.5 to 1 cm, and next day or two days later, tubers of Japanese ribbon waparo (Sagittaria pygmaea) were planted. Then, the irrigated water depth was maintained to be from 3 to 4 cm, and when barnyardgrass and Japanese bulrush reached 0.5 leaf stage, and Japanese ribbon waparo reached primary leaf stage, a water diluted solution of a wettable powder or an emulsifieable concentrate of the compound of the present invention prepared in accordance with a conventional preparation method, was uniformly dropwise applied by a pipette so that the amount of active ingredients would be a prescribed amount. Further, paddy field soil was put into a 1/1,000,000 pot, followed by soil puddling to an irrigated water depth of from 3 to 4 cm. Next day, rice (Oryza sativa L.) (var.: Nihonbare) of two leaf stage was transplanted in a transplantation depth of 3 cm. On the 4th day after transplantation, the compound of the present invention was applied in the same manner as described above.

[2] = test system: barnyardgrass (Echinochloa oryzicola vasing.); test: Test Example 4: paddy field pot, water application; settings: 63 g/ha, 14th day after application
Text: as §1

[3] = test system: Japanese bulrush (Scirpus juncoides); test: Test Example 4: paddy field pot, water application; settings: 63 g/ha, 14th day after application
Text: as §1

rice (Oryza sativa L.) [4] = test: Test Example 2: soil application on the day after sowing; settings: 250 g/ha, 19th to 22nd day after application, crop
Text: (§2) Upland field soil was put into a 1/170,000 hectare pot, and seeds of various plants (barnyardgrass (Echinochloa crus-galli L.), crabgrass (Digitaria sanguinalis L.), green foxtail (Setaria viridis L.), redroot pigweed (Amaranthus retroflexus L.), prickly sida (Sida spinosa L.), velvetleaf (Abutilon theophrasti MEDIC.), rice (oryza sativa L.), corn (Zea mays L.) and soybean (Glycine max Merr.)) were sown. On the day after sowing, wettable powders or emulsifiable concentrates of the compounds of the present invention prepared in accordance with a conventional preparation method, were weighed so that the active ingredients became the prescribed amounts, and diluted with water in an amount corresponding to 500 liter per 1 hectare, followed by soil application with a small sprayer.

corn (Zea mays L.) [5] = test: as above; settings: 250 g/ha, 19th to 22nd day after application, crop
Text: as §2

[6] = test system: prickly sida (Sida spinosa L.); test: as above; settings: 250 g/ha, 19th to 22nd day after application
Text: as §2

[7] = test system: redroot pigweed (Amaranthus retroflexus L.); test: as above; settings: 250 g/ha, 19th to 22nd day after application
Text: as §2

[8] = test system: barnyardgrass (Echinochloa crus-galli L.); test: as above; settings: 250 g/ha, 19th to 22nd day after application
Text: as §2

[9] = test system: green foxtail (Setaria viridis L.); test: as above; settings: 250 g/ha, 19th to 22nd day after application
Text: as §2

[10] = test system: velvetleaf (Abutilon theophrasti MEDIC.); test: as above; settings: 250 g/ha, 19th to 22nd day after application
Text: as §2

[11] = test system: crabgrass (Digitaria sanguinalis L.); test: as above; settings: 250 g/ha, 19th to 22nd day after application
Text: as §2

[12] = test system: soybean (Glycine max Merr.); test: as above; settings: 250 g/ha, 19th to 22nd day after application, crop
Text: as §2

[13] = test system: velvetleaf (Abutilon theophrasti MEDIC.); test: Test Example 1: foliar treatment, upland pot; settings: 7 g/ha, 21st day after application
Text: Upland field soil was put into a 1/170,000 hectare pot, and seeds of various plants were sown. […] The spray solutions thus prepared were applied for foliar treatment by a small sprayer.

[14] = test system: rice (Oryza sativa L.) (var.: Nihonbare); test: Test Example 4: paddy field pot, water application, transplanted rice; settings: 63 g/ha, 21st day after application, crop
Text: as §1

rice (Oryza sativa L.) [15] = test: Test Example 1: foliar treatment, upland pot; settings: 7 g/ha, 21st day after application, crop
Text: (§3) Upland field soil was put into a 1/170,000 hectare pot, and seeds of various plants were sown. When the respective plants reached predetermined leaf stage ((1) barnyardgrass (Echinochloa crus-galli L.): 1.0 to 3.3 leaf stage, (2) crabgrass (Digitaria sanguinalis L.): 1.2 to 3.0 leaf stage, (3) green foxtail (Setaria viridis L.): 1.5 to 3.3 leaf stage, (4) redroot pigweed (Amaranthus retroflexus L.): 0.1 to 2.0 leaf stage, (5) prickly sida (Sida spinosa L.): cotyledon stage to 2.0 leaf stage, (6) velvetleaf (Abutilon theophrasti MEDIC.): 0.1 to 2.0 leaf stage, (7) rice (Oryza sativa L.): 1.3 to 3.0 leaf stage, (8) corn (Zea mays L.): 2.5 to 3.4 leaf stage, and (9) soybean (Glycine max Merr.): primary leaf stage to 0.3 leaf stage), wettable powders or emulsifiable concentrates of the compounds of the present invention prepared in accordance with a conventional preparation method, were weighed so that the active ingredients became the prescribed amounts, and diluted with water in an amount corresponding to 500 liter per 1 hectare (containing 0.1 vol % of an agricultural spreader (“KUSARINOH”, manufactured by NIHON NOHYAKU CO., LTD.)). The spray solutions thus prepared were applied for foliar treatment by a small sprayer.

corn (Zea mays L.) [16] = test: Test Example 1: foliar treatment, upland pot; settings: 7 g/ha, 21st day after application, crop
Text: as §3

[17] = test system: redroot pigweed (Amaranthus retroflexus L.); test: Test Example 1: foliar treatment, upland pot; settings: 7 g/ha, 21st day after application
Text: as §3

[18] = test system: barnyardgrass (Echinochloa crus-galli L.); test: Test Example 1: foliar treatment, upland pot; settings: 7 g/ha, 21st day after application
Text: as §3

[19] = test system: green foxtail (Setaria viridis L.); test: Test Example 1: foliar treatment, upland pot; settings: 7 g/ha, 21st day after application
Text: as §3

[20] = test system: crabgrass (Digitaria sanguinalis L.); test: Test Example 1: foliar treatment, upland pot; settings: 7 g/ha, 21st day after application
Text: as §3

[21] = test system: soybean (Glycine max Merr.); test: Test Example 1: foliar treatment, upland pot; settings: 7 g/ha, 21st day after application, crop
Text: as §3

[22] = test system: prickly sida (Sida spinosa L.); test: Test Example 1: foliar treatment, upland pot; settings: 7 g/ha, 21st day after application
Text: as §3

SMILES | Growth inhibition rate (%) Japanese ribbon waparo [1] | Growth inhibition rate (%) Barnyardgrass [2] | Growth inhibition rate (%) Japanese bulrush [3] | Growth inhibition rate (%) Rice (rice (Oryza sativa L.) [4]) | Growth inhibition rate (%) Corn (corn (Zea mays L.) [5]) | Growth inhibition rate (%) Prickly sida [6] | Growth inhibition rate (%) Redroot pigweed [7] | Growth inhibition rate (%) Barnyardgrass [8] | Growth inhibition rate (%) Green foxtail [9] | Growth inhibition rate (%) Velvetleaf [10] | Growth inhibition rate (%) Crabgrass [11] | Growth inhibition rate (%) Velvetleaf [13] | Growth inhibition rate (%) Rice [14] | Growth inhibition rate (%) Rice (rice (Oryza sativa L.) [15]) | Growth inhibition rate (%) Corn (corn (Zea mays L.) [16]) | Growth inhibition rate (%) Redroot pigweed [17] | Growth inhibition rate (%) Barnyardgrass [18] | Growth inhibition rate (%) Green foxtail [19] | Growth inhibition rate (%) Crabgrass [20] | Growth inhibition rate (%) Soybean [21] | also measured
CCOC(=O)OC(C)Oc1c(C(=O)c2ccc(S(C)(=O)=O)c(C(=O)OC)c2C)cnn1C (racemic) [compound 21] | 70% | 100% | 70% | 100% | 0% | 60% | 100% | 100% | 100% | 90% | 100% | 85% | 10% | 80% | 0% | 90% | 90% | 80% | 90% | 95% | Growth inhibition rate (%) Soybean [12]: 50%
CCCOC(=O)OC(C)Oc1c(C(=O)c2ccc(S(C)(=O)=O)c(OCCOC)c2C)cnn1C (racemic) [compound 19] | 95% | 100% | 95% | 100% | 0% | 60% | 100% | 100% | 100% | 98% | 100% | 95% | 20% | 80% | 0% | 95% | 95% | 100% | 90% | 80% | Growth inhibition rate (%) Soybean [12]: 40%; Growth inhibition rate (%) Prickly sida [22]: 30%
CCOC(=O)OC(C)Oc1c(C(=O)c2ccc(S(C)(=O)=O)c(OCCOC)c2C)cnn1CC (racemic) [compound 3] | 90% | 100% | 95% | 100% | 0% | 50% | 100% | 100% | 100% | 80% | 100% | 90% | 40% | 80% | 0% | 90% | 95% | 100% | 95% | 70% | Growth inhibition rate (%) Soybean [12]: 20%; Growth inhibition rate (%) Prickly sida [22]: 10%
CCOC(=O)OC(C)Oc1c(C(=O)c2ccc(S(C)(=O)=O)c(COCC(F)(F)F)c2C)cnn1C (racemic) [compound 15] | – | 100% | 60% | 100% | 0% | 70% | 100% | 100% | 100% | 100% | 100% | 98% | 10% | 40% | 10% | 90% | 70% | 75% | 95% | 75% | Growth inhibition rate (%) Soybean [12]: 0%; Growth inhibition rate (%) Prickly sida [22]: 0%
CCOC(=O)OC(C)Oc1c(C(=O)c2ccc(S(C)(=O)=O)c(OCCOC)c2C)cnn1C(C)C (racemic) [compound 18] | 90% | 100% | 90% | 100% | 0% | 70% | 100% | 100% | 100% | 100% | 100% | 95% | 0% | 70% | 0% | 95% | 95% | 90% | 95% | 80% | Growth inhibition rate (%) Prickly sida [22]: 30%
CCOC(=O)OC(C)Oc1c(C(=O)c2ccc(S(C)(=O)=O)c(COC)c2C)cnn1C (racemic) [compound 7] | 60% | 100% | 70% | 90% | 0% | 80% | 80% | 100% | 40% | 70% | 90% | 98% | 70% | 70% | 0% | 85% | 95% | 90% | 90% | 95% | Growth inhibition rate (%) Soybean [12]: 0%; Growth inhibition rate (%) Prickly sida [22]: 80%
